In BindingDB's records for doi:10.1016/j.bmcl.2003.10.030 (Pfizer, 2003):

molecular target: Vascular endothelial growth factor receptor 1 (Homo sapiens, UniProt P17948); experiment: ChEBML_213951
Excerpt: Inhibitory activity against Vascular endothelial growth factor receptor

Vascular endothelial growth factor receptor 1, sequence (P17948 whole entry): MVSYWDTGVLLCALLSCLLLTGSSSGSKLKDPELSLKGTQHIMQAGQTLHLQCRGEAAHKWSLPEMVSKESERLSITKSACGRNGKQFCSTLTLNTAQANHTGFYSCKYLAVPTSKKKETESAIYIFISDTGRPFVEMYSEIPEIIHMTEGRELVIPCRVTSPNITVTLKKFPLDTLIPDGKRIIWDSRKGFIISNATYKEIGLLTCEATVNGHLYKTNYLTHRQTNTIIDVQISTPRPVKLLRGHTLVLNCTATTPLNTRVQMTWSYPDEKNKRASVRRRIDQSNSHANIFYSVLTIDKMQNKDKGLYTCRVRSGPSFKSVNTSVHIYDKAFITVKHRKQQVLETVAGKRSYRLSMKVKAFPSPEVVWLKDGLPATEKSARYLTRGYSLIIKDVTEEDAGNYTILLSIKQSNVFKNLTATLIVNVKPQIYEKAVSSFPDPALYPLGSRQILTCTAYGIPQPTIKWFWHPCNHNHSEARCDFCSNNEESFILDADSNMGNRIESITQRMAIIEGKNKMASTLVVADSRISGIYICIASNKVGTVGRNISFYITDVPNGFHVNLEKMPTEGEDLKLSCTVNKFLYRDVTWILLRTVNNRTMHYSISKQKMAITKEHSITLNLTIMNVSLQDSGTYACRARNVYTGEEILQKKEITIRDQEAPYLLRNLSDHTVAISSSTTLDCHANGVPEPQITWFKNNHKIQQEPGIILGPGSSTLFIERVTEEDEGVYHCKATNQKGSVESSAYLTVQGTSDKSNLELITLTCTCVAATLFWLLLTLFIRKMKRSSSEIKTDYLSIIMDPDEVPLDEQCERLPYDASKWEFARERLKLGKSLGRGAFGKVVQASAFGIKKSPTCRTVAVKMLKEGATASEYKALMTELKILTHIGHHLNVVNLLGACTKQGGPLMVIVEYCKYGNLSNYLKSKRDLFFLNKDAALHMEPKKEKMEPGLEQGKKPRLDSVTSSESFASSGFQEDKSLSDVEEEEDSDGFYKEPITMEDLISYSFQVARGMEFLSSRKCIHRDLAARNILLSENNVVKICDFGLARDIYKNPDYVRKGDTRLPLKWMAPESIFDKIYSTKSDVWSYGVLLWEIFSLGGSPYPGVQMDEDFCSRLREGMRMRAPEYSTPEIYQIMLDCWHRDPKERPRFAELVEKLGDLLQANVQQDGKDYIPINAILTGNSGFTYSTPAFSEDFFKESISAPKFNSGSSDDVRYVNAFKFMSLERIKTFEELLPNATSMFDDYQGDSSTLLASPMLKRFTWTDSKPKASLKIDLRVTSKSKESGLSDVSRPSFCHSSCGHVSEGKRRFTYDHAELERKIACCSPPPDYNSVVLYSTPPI

IC50 | SMILES
130 nM | c1csc(-c2cc3ncnc(Nc4ccc5[nH]ccc5c4)c3s2)c1 [(1H-Indol-5-yl)-(6-thiophen-2-yl-thieno[3,2-d]pyrimidin-4-yl)-amine]

molecular target: not listed separately; experiment: Inhibitory activity against Vascular endothelial growth factor receptor

IC50 | SMILES
140 nM | Cc1cc2cc(Nc3ncnc4cc(-c5ccccc5)sc34)ccc2[nH]1 [(2-Methyl-1H-indol-5-yl)-(6-phenyl-thieno[3,2-d]pyrimidin-4-yl)-amine]
5 nM | Cc1cc2cc(Nc3ccnc4cc(-c5ccc(CN6CCOCC6)cc5)sc34)ccc2[nH]1 [(2-Methyl-1H-indol-5-yl)-[2-(4-morpholin-4-ylmethyl-phenyl)-thieno[3,2-b]pyridin-7-yl]-amine]
290 nM | Cc1c[nH]c2ccc(Nc3ncnc4cc(-c5ccccc5)sc34)cc12 [(3-Methyl-1H-indol-5-yl)-(6-phenyl-thieno[3,2-d]pyrimidin-4-yl)-amine]
220 nM | Brc1cc2ncnc(Nc3ccc4[nH]ccc4c3)c2s1 [(6-Bromo-thieno[3,2-d]pyrimidin-4-yl)-(1H-indol-5-yl)-amine]
> 2500 nM | c1ccc(CNc2ncnc3cc(-c4ccccc4)sc23)cc1 [Benzyl-(6-phenyl-thieno[3,2-d]pyrimidin-4-yl)-amine]
43 nM | c1ccc(NCCN(c2cc3ncnc(Nc4ccc5[nH]ccc5c4)c3s2)n2cccc2)cc1 [N*4*-(1H-Indol-5-yl)-N*6*-(2-phenylamino-ethyl)-N*6*-pyrrol-1-yl-thieno[3,2-d]pyrimidine-4,6-diamine]
500 nM | CN(C)c1ccc(Nc2ncnc3cc(-c4ccccc4)sc23)cc1 [N,N-Dimethyl-N'-(6-phenyl-thieno[3,2-d]pyrimidin-4-yl)-benzene-1,4-diamine]
4 nM | CC(=O)NCCNCc1ccc(-c2cc3ncnc(Nc4ccc5[nH]ccc5c4)c3s2)cc1 [N-(2-{4-[4-(1H-Indol-5-ylamino)-thieno[3,2-d]pyrimidin-6-yl]-benzylamino}-ethyl)-acetamide]
24 nM | CC(=O)NCCNCc1ccc(-c2cc3nccc(Nc4ccc5[nH]ccc5c4)c3s2)cc1 [N-(2-{4-[7-(1H-Indol-5-ylamino)-thieno[3,2-b]pyridin-2-yl]-benzylamino}-ethyl)-acetamide]
190 nM | CNc1ccc(Nc2ncnc3cc(-c4ccccc4)sc23)cc1 [N-Methyl-N'-(6-phenyl-thieno[3,2-d]pyrimidin-4-yl)-benzene-1,4-diamine]
390 nM | c1ccc(Nc2ccc(Nc3ncnc4cc(-c5ccccc5)sc34)cc2)cc1 [N-Phenyl-N'-(6-phenyl-thieno[3,2-d]pyrimidin-4-yl)-benzene-1,4-diamine]
770 nM | O=C(c1ccccc1)c1cc2ncnc(Nc3ccc4[nH]ccc4c3)c2s1 [[4-(1H-Indol-5-ylamino)-thieno[3,2-d]pyrimidin-6-yl]-phenyl-methanone]
18 nM | NCc1ccc(-c2cc3ncnc(Nc4ccc5[nH]ccc5c4)c3s2)cc1 [[6-(4-Aminomethyl-phenyl)-thieno[3,2-d]pyrimidin-4-yl]-(1H-indol-5-yl)-amine]
56 nM | OCc1ccc(-c2cc3ncnc(Nc4ccc5[nH]ccc5c4)c3s2)cc1 [{4-[4-(1H-Indol-5-ylamino)-thieno[3,2-d]pyrimidin-6-yl]-phenyl}-methanol]

Second part, the compound before the results:

SMILES | IC50
Cc1cc2cc(Nc3ccnc4cc(-c5ccc(CNCCOCCO)cc5)sc34)ccc2[nH]1 [2-(2-{4-[7-(2-Methyl-1H-indol-5-ylamino)-thieno[3,2-b]pyridin-2-yl]-benzylamino}-ethoxy)-ethanol] | 5 nM
Cc1cc2cc(Nc3ccnc4cc(-c5ccc(CN(C)CCO)cc5)sc34)ccc2[nH]1 [2-(Methyl-{4-[7-(2-methyl-1H-indol-5-ylamino)-thieno[3,2-b]pyridin-2-yl]-benzyl}-amino)-ethanol] | 3 nM
CN(CCO)Cc1ccc(-c2cc3nccc(Nc4ccc5[nH]ccc5c4)c3s2)cc1 [2-({4-[7-(1H-Indol-5-ylamino)-thieno[3,2-b]pyridin-2-yl]-benzyl}-methyl-amino)-ethanol] | 4 nM
O=C(Cc1cc2ncnc(Nc3ccc4[nH]ccc4c3)c2s1)c1ccccc1 [2-[4-(1H-Indol-5-ylamino)-thieno[3,2-d]pyrimidin-6-yl]-1-((E)-phenyl)-ethenol] | 2210 nM
CC(C)(CO)NCc1ccc(-c2cc3ncnc(Nc4ccc5[nH]ccc5c4)c3s2)cc1 [2-{4-[4-(1H-Indol-5-ylamino)-thieno[3,2-d]pyrimidin-6-yl]-benzylamino}-2-methyl-propan-1-ol] | 25 nM
OCCNCc1ccc(-c2cc3nccc(Nc4ccc5[nH]ccc5c4)c3s2)cc1 [2-{4-[7-(1H-Indol-5-ylamino)-thieno[3,2-b]pyridin-2-yl]-benzylamino}-ethanol] | 6 nM
Cc1cc2cc(Nc3ccnc4cc(-c5ccc(CNCCO)cc5)sc34)ccc2[nH]1 [2-{4-[7-(2-Methyl-1H-indol-5-ylamino)-thieno[3,2-b]pyridin-2-yl]-benzylamino}-ethanol] | 4 nM
OCCCNCc1ccc(-c2cc3nccc(Nc4ccc5[nH]ccc5c4)c3s2)cc1 [3-{4-[7-(1H-Indol-5-ylamino)-thieno[3,2-b]pyridin-2-yl]-benzylamino}-propan-1-ol] | 4 nM
Cc1cc2cc(Nc3ccnc4cc(-c5ccc(CNCCCO)cc5)sc34)ccc2[nH]1 [3-{4-[7-(2-Methyl-1H-indol-5-ylamino)-thieno[3,2-b]pyridin-2-yl]-benzylamino}-propan-1-ol] | 5 nM
CCCNC(=O)c1cc2ncnc(Nc3ccc4[nH]ccc4c3)c2s1 [4-(1H-Indol-5-ylamino)-thieno[3,2-d]pyrimidine-6-carboxylic acid propylamide] | 2000 nM
NC(=O)c1ccc(Nc2ncnc3cc(-c4ccccc4)sc23)cc1 [4-(6-Phenyl-thieno[3,2-d]pyrimidin-4-ylamino)-benzamide] | 250 nM
Nc1ncnc2cc(-c3ccccc3)sc12 [6-Phenyl-thieno[3,2-d]pyrimidin-4-ylamine] | > 1250 nM
Cn1ccc2cc(Nc3ncnc4cc(-c5ccccc5)sc34)ccc21 [(1-Methyl-1H-indol-5-yl)-(6-phenyl-thieno[3,2-d]pyrimidin-4-yl)-amine] | > 2500 nM
c1ccc(-c2cc3ncnc(Nc4ccc5nn[nH]c5c4)c3s2)cc1 [(1H-Benzotriazol-5-yl)-(6-phenyl-thieno[3,2-d]pyrimidin-4-yl)-amine] | 470 nM
c1ccc(-c2cc3ncnc(Nc4ccc5[nH]ncc5c4)c3s2)cc1 [(1H-Indazol-5-yl)-(6-phenyl-thieno[3,2-d]pyrimidin-4-yl)-amine] | 620 nM
c1csc(-c2cc3nccc(Nc4ccc5[nH]ccc5c4)c3s2)c1 [(1H-Indol-5-yl)-(2-thiophen-2-yl-thieno[3,2-b]pyridin-7-yl)-amine] | 132 nM
c1cc(Nc2ccc3[nH]ccc3c2)c2sc(-c3ccc(CN4CCOCC4)cc3)cc2n1 [(1H-Indol-5-yl)-[2-(4-morpholin-4-ylmethyl-phenyl)-thieno[3,2-b]pyridin-7-yl]-amine] | 5 nM
c1nc(Nc2ccc3[nH]ccc3c2)c2sccc2n1 [(1H-Indol-5-yl)-thieno[3,2-d]pyrimidin-4-yl-amine] | 1410 nM

molecular target: not listed separately; experiment: as above; remark: another data set of the same source

IC50 | SMILES
48 nM | c1ccc(-c2cc3ncnc(Nc4ccc5[nH]ccc5c4)c3s2)cc1 [(1H-Indol-5-yl)-(6-phenyl-thieno[3,2-d]pyrimidin-4-yl)-amine]
4 nM | c1ccc(CCCN(c2cc3ncnc(Nc4ccc5[nH]ccc5c4)c3s2)n2ccnc2)cc1 [N*6*-Imidazol-1-yl-N*4*-(1H-indol-5-yl)-N*6*-(3-phenyl-propyl)-thieno[3,2-d]pyrimidine-4,6-diamine]
